“And” between values parts separate entries of the source, which are not always exact repeats. Identical values can stand only once.
Experiments:
Format in all cases: cell-based, mouse
AC711 = test: cell count proliferation assay; set-up: key: +: A positive scoring in these Tables represent cells in which a 2-5 and a 10-40 fold reduction in the total number of cells relative to the control untreated cells was observed after 3 and 7 days of culture with F16, respectively; settings: AC711, Ras, breast; F16 3 μM, cells counted after 3 and 7 days
Source text: (§1) The following panel of mouse tumor cell lines derived from Neu, Ras and Myc transgenic mice and panel of human cancer cell lines were used: a) Neu-initiated mouse tumor cell lines NF980, NF324-2A, NF324-1B, SMF, NAF, Neu4145, n-Neu, Ras-initiated mouse tumor cell lines SH1,1, AC236, AC711, AC816, ACp53^−#1, ACp53^−4782, AC222, AC99, AC260, ACp53^−#19, ACp53^−#16, AC/Balb6.6, AC/Balb14, AC/Balb12 and Myc-initiated mouse tumor cell lines 16MB9a, 13MA1a; and b) human breast tumor cell lines MDA-MB231, MDA-MB435, MDA-MB436, MDA-MB453, MDA-MB-468, SKBR-3, MCF-7, T47D, ZR75; human prostate cancer cell lines LNCaP, PC-3, DU145 and the human ovarian cancer cell line SKOV-3.
(§2) For each cell line, 10^5 cells were seeded in 4×6 well plates. Next day, F16 was added at 3 μM to the medium of 2 of the plates, while the other two were left untreated (control). Cells were counted 3 days and 7 days after initiation of treatment.
(§3) A positive scoring in these Tables represent cells in which a 2-5 and a 10-40 fold reduction in the total number of cells relative to the control untreated cells was observed after 3 and 7 days of culture with F16, respectively.

NF324-2A = test: cell count proliferation assay; set-up: key: +: A positive scoring in these Tables represent cells in which a 2-5 and a 10-40 fold reduction in the total number of cells relative to the control untreated cells was observed after 3 and 7 days of culture with F16, respectively; settings: Neu, breast, F16 3 μM, cells counted after 3 and 7 days
Source text: as §1, §2, §3

NF980 [1] = test: cell count proliferation assay; set-up: key: +: A positive scoring in these Tables represent cells in which a 2-5 and a 10-40 fold reduction in the total number of cells relative to the control untreated cells was observed after 3 and 7 days of culture with F16, respectively; settings: NF980, Neu, breast; F16 3 μM, cells counted after 3 and 7 days
Source text: as §1, §2, §3

Neu4145 = test: cell count proliferation assay; set-up: key: +: A positive scoring in these Tables represent cells in which a 2-5 and a 10-40 fold reduction in the total number of cells relative to the control untreated cells was observed after 3 and 7 days of culture with F16, respectively; settings: Neu4145, Neu, breast; F16 3 μM, cells counted after 3 and 7 days
Source text: as §1, §2, §3

SH1.1 [2] = test: cell count proliferation assay; set-up: key: +: A positive scoring in these Tables represent cells in which a 2-5 and a 10-40 fold reduction in the total number of cells relative to the control untreated cells was observed after 3 and 7 days of culture with F16, respectively; settings: SH1.1, Ras, breast; F16 3 μM, cells counted after 3 and 7 days
Source text: as §1, §2, §3

AC816 = test: cell cycle phases by BrdU incorporation / FACS; settings: F16 3 μM, 30 hr
Protocol: (§4) The percentage of cells in the different phases of the cell cycle was assessed by measuring BrdU incorporation into the DNA of the cells. BrdU incorporation into DNA of untreated or F16 treated (3 μM/30-36 hr) EpH-EV and EpH-A6 cells was assessed by FACS as follows. After F16 or mock treatment, the cells were pulsed with BrdU (20 μM) for 1 hour and then fixed in 70% ethanol at −20° C. overnight. Next morning cells were washed twice with 1×PBS and the DNA was denatured by incubation of the cells in 2N HCl/0.5% Triton X-100. The cells were then washed twice in 0.1M Na2B2O7, and once in PBS. The cells were resuspended in PBS, incubated with 20 μL of anti-BrdU/FITC(Becton Dickinson) for 1 hour and subsequently washed with 1×PBS and resuspended in PBS. RNA was digested with RNaseA (1 μL of 10 mg/mL stock) at 37° C. for 30 minutes. Finally, the cells were diluted with 1 mL of 5 μg/mL propidium iodide/PBS and incubated on ice for 15 minutes. The labeled cells were analyzed using the FACSCalibur (Becton Dickinson).
(§5) The effect of F16 (3 μM) on BrdU incorporation into DNA of various Neu-induced, Ras-induced and Myc-induced tumor cells lines was examined using the same technique. The results, which are shown in Table 3, indicate that, except for 16MB9a, a myc tumor cell line that is not affected by F16, the other cell lines, all of which are sensitive to F16 show, as expected, a decrease in the percentage of cells in the S phase and an increase in the percentage of cells in G1 after 30 hr of incubation in medium containing F16 (3 μM). In some cases, an increase in the amount of cells in G2 phase was observed. This may reflect the heterogeneity of the tumor cells, some of which may have acquired defects in various cell cycle regulators as secondary events.

[3] = test system: Myc (16MB9a, a myc tumor cell line); test: cell cycle phases by BrdU incorporation / FACS; settings: Myc tumor cell line (16MB9a); F16 3 μM, 30 hr
Protocol: as §4, §5

NAF = test: cell cycle phases by BrdU incorporation / FACS; settings: F16 3 μM, 30 hr
Protocol: as §4, §5

NF980 [4] = test: cell cycle phases by BrdU incorporation / FACS; settings: F16 3 μM, 30 hr
Protocol: as §4, §5

SH1.1 [5] = test: cell cycle phases by BrdU incorporation / FACS; settings: F16 3 μM, 30 hr
Protocol: as §4, §5

n-Neu = test: cell cycle phases by BrdU incorporation / FACS; settings: F16 3 μM, 30 hr
Protocol: as §4, §5

C[n+]1ccc(/C=C/c2c[nH]c3ccccc23)cc1.[I-] [F16]
F16 response (AC711): +
F16 response (NF324-2A): +
F16 response (NF980 [1]): +
F16 response (Neu4145): +
F16 response (SH1.1 [2]): +
With F16 % G1 (AC816): 96.8% and 95.1%
With F16 % G2 (AC816): 2.7% and 2.8%
With F16 % S (AC816): 0.1% and 0.2%
With F16 % G1 [3]: 82.7% and 83.8%
With F16 % G2 [3]: 1.5%
With F16 % S [3]: 12.8% and 12.7%
With F16 % G1 (NAF): 86.8%
With F16 % G2 (NAF): 3.6%
With F16 % S (NAF): 4.7%
With F16 % G1 (NF980 [4]): 68.6% and 69.6%
With F16 % G2 (NF980 [4]): 12.4% and 8.9%
With F16 % S (NF980 [4]): 17.3% and 17.0%
With F16 % G1 (SH1.1 [5]): 81.3% and 79.7%
With F16 % G2 (SH1.1 [5]): 10.4% and 13.2%
With F16 % S (SH1.1 [5]): 7.1%
With F16 % G1 (n-Neu): 64.5% and 61.5%
With F16 % G2 (n-Neu): 15.4% and 17.8%
With F16 % S (n-Neu): 18.2% and 19.6%

Source: patent US20040097408A1, “Compounds regulating cell proliferation and differentiation” (priority 2001, published 2004)
